Data set [1] in a line: Tmax in rat at 10 mg/kg, ip. In kind it is ADME, organism-based. On the set-up: dose 10 mg/kg, route intraperitoneal. The settings on record: in vivo.
In data set [2] the test system is Rattus norvegicus. Briefly: Cmax in rat at 20 mg/kg, po. Also noted: dose 20 mg/kg, route oral. As to conditions: in vivo. In kind it is ADME, organism-based.
Data set [3] deals with Rattus norvegicus. Nature of the data set: Tmax in rat at 20 mg/kg, po. On the set-up: dose 20 mg/kg, route oral. In kind it is ADME, organism-based. The settings on record: in vivo.
Data set [4] deals with Rattus norvegicus. Nature of the data set: AUC (0 to t) in rat at 20 mg/kg, po. In kind it is ADME, organism-based, Plasma. On the set-up: dose 20 mg/kg, route oral. The settings on record: in vivo.
The test system of a further data set is Brain. Nature of the data set: Drug uptake in rat brain at 20 mg/kg, po. In kind it is ADME, organism-based. Also noted: dose 20 mg/kg, route oral. The settings on record: in vivo, read-out: Drug uptake.
In another data set the test system is Plasma. Nature of the data set: Plasma concentration in rat at 20 mg/kg, po. As to conditions: in vivo. On the set-up: dose 20 mg/kg, route oral. It counts as ADME, organism-based.
Data set [5] concerns Rattus norvegicus. Briefly: Cmax in rat at 2 mg/kg, iv. It counts as ADME, organism-based. Also noted: dose 2 mg/kg, route intravenous. The settings on record: in vivo.
The subject of data set [6] is Rattus norvegicus. Nature of the data set: Volume of distribution at steady state in rat at 2 mg/kg, iv. In kind it is ADME, organism-based. Also noted: dose 2 mg/kg, route intravenous. The settings on record: in vivo.
In data set [7] the test system is Rattus norvegicus. Briefly: AUC (0 to t) in rat at 2 mg/kg, iv. In kind it is ADME, organism-based, Plasma. On the set-up: dose 2 mg/kg, route intravenous. As to conditions: in vivo.
The subject of the next data set is Nucleic Acid. Briefly: Ratio of drug uptake from brain to plasma in rat after 30 mins. It counts as ADME. As to conditions: 0.5 h.

SMILES strings stand for the structures.

A word on the Tmax: it is the time at which the peak concentration occurs. Regarding `CCCC(=O)c1ccc(OCCCCOc2cc(C(=O)O)ccc2OC)c(C)c1O`, the Tmax in data set [1] came out at 30 min.

Regarding `Cc1c(OCCCCOc2ccc(C(=O)CC(C)(C)C)c(O)c2C)cccc1C(=O)O`, in data set [1], the Tmax is 30 min.

Regarding `CCC(=O)c1ccc(OCCCCOc2ccc(F)c(C(=O)O)c2)c(C)c1O`, the Tmax in [1] was found to be 30 min.

A word on the Cmax: it is the highest concentration seen after dosing. A word on the Vdss: it is the apparent volume that relates the amount in the body to the concentration in plasma or blood. A low value points to confinement near the circulation. In the case of `COc1cc(C(=O)O)ccc1OCCCCOc1ccc(C(=O)CC(C)C)c(O)c1C`, the Cmax in the data set on Rattus norvegicus [2] came out at 2.75 µM; with Rattus norvegicus [5], 6.43 µM. The Tmax amounted to 90 min in the data set with Rattus norvegicus [3] and 30 min in [1]. Besides, the AUCt stood at 1274.6 µmol·min/L in the data set on Rattus norvegicus [4] and 304.6 µmol·min/L with Rattus norvegicus [7]. Moreover, the concentration in the data set on Brain was found to be 0.81 µM; with Plasma, 16.4 µM. The compound also gave a Vdss in the data set with Rattus norvegicus [6] of 0.55 L/kg.

Consider `Cc1c(OCCCCOc2ccc(F)c(C(=O)O)c2)ccc(C(=O)CC(C)C)c1O`, for which the figures for the Cmax in the data set on Rattus norvegicus [2] and in the data set on Rattus norvegicus [5] were 12.5 µM and 3.52 µM, respectively. Further, the Tmax in the data set on Rattus norvegicus [3] was 30 min. Also, the AUCt in the data set on Rattus norvegicus [4] turned out to be 720.5 µmol·min/L; in the data set on Rattus norvegicus [7], 123.7 µmol·min/L. Also, the results for the concentration with Brain and in the data set with Plasma were 0.23 µM and 4.23 µM, respectively. Further, the Vdss with Rattus norvegicus [6] was determined as 0.89 L/kg.

For `COc1ccc(C(=O)O)cc1OCCCCOc1ccc(C(=O)CC(C)C)c(O)c1C`, the figures for the Cmax in the data set on Rattus norvegicus [2] and with Rattus norvegicus [5] were 1.05 µM and 2.15 µM, respectively. The Tmax in the data set with Rattus norvegicus [3] is recorded as 96 min. Also, the AUCt with Rattus norvegicus [4] is 466.2 µmol·min/L; in the data set with Rattus norvegicus [7], 77.2 µmol·min/L. The same compound gave a Vdss in the data set on Rattus norvegicus [6] of 2.87 L/kg.

`COc1cc(C(=O)O)ccc1OCCCCOc1ccc(C(=O)CC(C)(C)C)c(O)c1C`: the BPR in the data set on Nucleic Acid was determined as 0.02. For the same compound, in data set [1], the Tmax worked out at 30 min.

Take `COc1ccc(C(=O)O)cc1OCCCCOc1ccc(C(=O)CC(C)(C)C)c(O)c1C`: the Tmax in data set [1] was found to be 30 min.

In the case of `Cc1c(OCCCCOc2ccc(C(=O)O)cc2)ccc(C(=O)CC(C)C)c1O`, the Cmax came to 2.57 µM with Rattus norvegicus [2] and 5 µM with Rattus norvegicus [5]. Moreover, in the data set with Rattus norvegicus [3], the Tmax came out at 135 min. Besides, the AUCt worked out at 544.8 µmol·min/L in the data set with Rattus norvegicus [4] and 231.7 µmol·min/L in the data set with Rattus norvegicus [7]. In addition, the figures for the concentration in the data set with Brain and in the data set on Plasma were 1.12 µM and 5.29 µM, respectively. The Vdss in the data set on Rattus norvegicus [6] is 0.81 L/kg.

With `Cc1c(OCCCCOc2ccc(F)c(C(=O)O)c2)ccc(C(=O)CC(C)(C)C)c1O`, the Tmax in data set [1] was found to be 30 min.

For the origin of these results see ChEMBL document CHEMBL3286233, “Design and synthesis of systemically active metabotropic glutamate subtype-2 and -3 (mGlu2/3) receptor positive allosteric modulators (PAMs): pharmacological characterization and assessment in a rat model of cocaine dependence” (J Med Chem, 2014).
